SMILES strings stand for the structures. pIC50: −log10 of the molar value.

In this test the test system is HT-29 cells. The test can be described thus: Cell-based necroptosis assay for RIPK1 activity (cell viability, CCK-8). The settings on record: HT29 (human colon cancer), Z-VAD-FMK 20 μM, human TNFα 10 ng/ml, SM-164 100 nM, 24 h, read-out: Necroptosis inhibition (IC50). As to the method:
Human colon carcinoma cell HT-29 (KCLB 30038), BV2 mouse microglial cell (cell was a kind gift from Dr. Nak-Yun Sung, Senior researcher at Korea Prime Pharmacy CO., LTD.) and human microglial cell HMC3 (ATCC® CRL-3304™). HT-29 cell was grown in Roswell Park Memorial Institute (RPMI) 1640, BV2 cell was grown in Dulbecco's Modified Eagle's Medium (DMEM) and HMC3 cell was grown in Minimum Essential Media Eagle (MEM) supplemented with 10% fetal bovine serum and 1% mixture of penicillin and streptomycin (Gibco). Cells were maintained at 37° C. in a humidified 5% CO2 atmosphere.
To measure the activity of RIPK1 inhibitor in necroptotic cells, HT-29 cells were treated by control DMSO, human TNFα (Peprotech, Rocky Hill, USA), SM-164 (Biovision, California, USA) and a pan-caspase inhibitor Z-VAD-FMK (Invivogen, San Diego, USA). Cells were pretreated with Z-VAD-FMK 20 μM. After 30 min, human TNFα 10 ng/ml, SM-164 100 nM and RIPK1 Inhibitor (0.0001, 0.001, 0.01, 0.02, 0.05, 0.1, 1, 10 uM) were treated for 24 h. Cell viability was measured by Cell Counting Kit 8 (CCK-8) (Dong-in, Seoul, Korea).
For orientation: pIC50 means −log10 of the IC50, conventionally taken in molar units. With `CN1C(=O)C(NC(=O)n2cc(Cc3ccccc3)cn2)CCc2nccnc21` (stereo not shown) [Example 31, 4-benzyl-N-(5-methyl-6-oxo-6,7,8,9-tetrahydro-5H-pyrazino[2,3-b]azepin-7-yl)-1H-pyrazole-1-carboxamide], the pIC50 was less than 7.00. Regarding `CN1C(=O)[C@@H](NC(=O)n2cc(Cc3ccccc3)cn2)COc2ccnc(F)c21` [Example 32, (S)-4-benzyl-N-(6-fluoro-5-methyl-4-oxo-2,3,4,5-tetrahydropyrido[4,3-b][1,4]oxazepin-3-yl)-1H-pyrazole-1-carboxamide], the negative-log IC50 (pIC50) is greater than 8.00. In the case of `CN1C(=O)[C@@H](NC(=O)n2cc(Cc3cccc(F)c3)cn2)COc2ccnc(F)c21` [Example 33, (S)—N-(6-fluoro-5-methyl-4-oxo-2,3,4,5-tetrahydropyrido[4,3-b][1,4]oxazepin-3-yl)-4-(3-fluorobenzyl)-1H-pyrazole-1-carboxamide], the pIC50 was greater than 7.00. On to `CN1C(=O)[C@@H](NC(=O)n2cc(Cc3ccccc3)cn2)COc2cc(F)ncc21` [Example 34, (S)-4-benzyl-N-(8-fluoro-5-methyl-4-oxo-2,3,4,5-tetrahydropyrido[4,3-b][1,4]oxazepin-3-yl)-1H-pyrazole-1-carboxamide], for which the pIC50 is greater than 8.00. Take `CN1C(=O)[C@@H](NC(=O)n2cc(Cc3cccc(F)c3)cn2)COc2cc(F)ncc21` [Example 35, (S)—N-(8-fluoro-5-methyl-4-oxo-2,3,4,5-tetrahydropyrido[4,3-b][1,4]oxazepin-3-yl)-4-(3-fluorobenzyl)-1H-pyrazole-1-carboxamide]: the pIC50 was greater than 8.00. The value for `CN1C(=O)[C@@H](NC(=O)n2cc(Cc3ccccc3)cn2)COc2cc(Cl)ncc21` [Example 36, (S)-4-benzyl-N-(8-chloro-5-methyl-4-oxo-2,3,4,5-tetrahydropyrido[4,3-b][1,4]oxazepin-3-yl)-1H-pyrazole-1-carboxamide] was greater than 8.00. For `Cc1cc2c(cn1)N(C)C(=O)[C@@H](NC(=O)n1cc(Cc3ccccc3)cn1)CO2` [Example 37, (S)-4-benzyl-N-(5,8-dimethyl-4-oxo-2,3,4,5-tetrahydropyrido[4,3-b][1,4]oxazepin-3-yl)-1H-pyrazole-1-carboxamide], the pIC50 was greater than 8.00.

Source of the values: patent US12365695B2, “Fused ring heteroaryl compounds as RIPK1 inhibitors” (BiSiChem Co., Ltd., priority 2019, dated 2025).
